# A melting point compilation (Tetko et al.; mined from patent text by program, amines drawn as free bases though some values may be those of a salt)
row,Structure (SMILES),melting point [°C]
1,CCCn1c(=O)c2[nH]c(-c3cc(C)n(CC(=O)Nc4cccc5ccccc45)n3)nc2n(CCC)c1=O,> 300
2,Oc1ccc(Nc2nc(NCc3ccco3)nc(N3CCOCC3)n2)cc1,163 to 165
3,CC(C)(Oc1ccc(OCc2cnc(-c3ccc(C(F)(F)F)cc3)nc2C2CC2)c(F)c1)C(=O)O,178
4,CNc1ncc(-c2ccccc2)c(-c2ccccc2)n1,136 to 138
5,CC(=O)OC1CC(C)(C)N(OC(=O)C=Cc2ccccc2)C(C)(C)C1,130 to 132
6,"CC(NC(=O)c1cccnc1Oc1ccc(F)cc1)c1ccc(Cl)s1 (single isomer, unassigned; (+))",78 to 80
7,N#CN(c1ccccc1)c1nc(N(C#N)c2ccccc2)nc(N(c2ccccc2)c2ccccc2)n1,280 to 284
8,COc1ccc2cc(C(=O)C(C)Br)ccc2c1Br (configuration not stated),166 to 167
9,CCOC1CN(Cc2ccc(OC)cc2)Cc2cc(OC)c(O)cc21 (configuration not stated),154 to 157
10,OCC1=CCc2cc3ccccc3cc21,115 to 116
11,Cc1noc(-c2ncn3c2cnc2ccccc23)n1,269 to 270
12,COc1cc2c(cc1OC)CN(CCc1ccc(-c3ccccc3)cc1)CC2,162 to 164
13,FC(F)(F)c1cc(I)c2c(c1)ncn2-c1ccccc1,118 to 120
14,CCSc1nc(O)nn1CC,65 to 68
15,Cc1c(NC(=O)CC(C)(C)C)c(C)c2c(c1-c1cccs1)OCC2c1ccc(C(C)C)cc1 (configuration not stated),155 to 156
16,O=C(N[C@H](CC1CCCCC1)CN1CCN(c2nccc3ccccc23)CC1)C1CCCCC1,155 to 159
17,CC12CCC(=O)N1CC(=O)N2 (configuration not stated),187 to 189
18,COc1cc(OC)c2c(=O)[nH]c(-c3ccc(OCCNC(C)C)c(-c4ccc(C(=O)N(C)C)cc4)n3)nc2c1,214 to 215
19,N#Cc1ccc(CNC(=O)C2Cc3ccccc3N2S(=O)(=O)c2ccc(-c3cccc(C(F)(F)F)c3)cc2)cc1 (configuration not stated),80 to 89
20,CC(C)(C)c1ccc(NC(=O)c2ccccc2SSc2ccccc2C(=O)Nc2ccc(C(C)(C)C)cc2)cc1,135 to 138
21,Cc1sc(S(=O)(=O)NC(C)(C)CO)cc1NC(=O)c1cnn2c(C(F)(F)F)cc(-c3ccc(C(F)(F)F)cc3)nc12,225
22,O=C(O)c1cn(C2CC2)c2nc3cc(N4CCNC(c5cccs5)C4)c(F)cc3cc2c1=O (racemic),245
23,Cc1csc2nc(CO)cn12,156 to 157
24,OCc1cccc2cc(Br)ccc12,72 to 75
25,CCc1oc2ccccc2c1C(O)c1ccccc1 (configuration not stated),98 to 99

row,Structure (SMILES),melting point [°C]
1,Cc1cc(Oc2ncnc3ccn(C)c23)ccc1NC(=O)Nc1cccc(C(F)(F)F)c1,213 to 215
2,COc1ccc(C(O)(Cc2ccncc2)c2ccncc2)cc1OC1CCCC1 (configuration not stated),99 to 103
3,O=C(Nc1ccccc1F)c1ccccn1,112 to 115
4,O=c1[nH]c(=O)n(C2CC(O)C(CO)O2)cc1C#CI (configuration not stated),135 to 137
5,Cc1c(NC(=O)c2ccc(-c3ccc(Cl)cc3)c(F)c2)ccc2cc(CN3CCCC3)cnc12,190 to 192
6,O=C1NC(=O)C(=Cc2ccc(-c3ccc(O)c(C45CC6CC(CC(C6)C4)C5)c3)cc2)S1,307 to 308
7,Cc1ccc(CCC(=O)C(=[N+]=[N-])C(=O)CCc2ccc(C)cc2)cc1,45.6 to 46.8
8,Cn1c(CCCOc2ccc(CC3SC(=O)NC3=O)cc2)nc2cccnc21 (configuration not stated),185 to 186
9,CCOC(=O)CN1CCC(=C2c3ccc(Cl)cc3CCc3cccnc32)CC1,80 to 82
10,Cn1nnc2c(N3CCOCC3)nc(-c3ccc(NC(=O)Nc4ccsc4)cc3)nc21,272
11,CCN(CC)C(=O)OCC1CN(C(=O)c2cc(OC)c(OC)c(OC)c2)CCN1C(=S)c1cc(OC)c(OC)c(OC)c1 (configuration not stated),175
12,CCOc1nc2nc(SC)nn2c2c1cnc1c2cnn1CC,209 to 211
13,CN(C)NC(=O)NC(C(=O)O)c1cccs1 (configuration not stated),208 to 210
14,CC(=CC#N)c1cccc2cc[nH]c12,88 to 90
15,O=C(O)C1Cc2[nH]c3ccc(OCc4ccccc4)cc3c2C1 (configuration not stated),161 to 163
16,CCCCOc1ccc(S(C)(=O)=O)cc1C(=O)Nc1c(C(N)=O)nn(CCN2CCOCC2)c1CC,182 to 185
17,CN1C(=S)NC(=O)C1=Cc1cc(C(C)(C)C)c(O)c(C(C)(C)C)c1,242 to 244
18,CCOc1ccc(CCCCCCC(=O)O)cc1,65 to 66
19,C=Cc1ccc(-c2ccc(OC(C)CCCCCC)cc2)cc1 (configuration not stated),80.6
20,O=C(NC[C@H]1CN(c2ccc(N3CCN(C(=O)OCc4ccccc4)CC3)c(F)c2)C(=O)O1)C(F)F,147
21,CCn1c(=O)c2[nH]c(/C=C/c3cccc(OC)c3OC)nc2n(CC)c1=O,288 to 289
22,CCCCCCCCCCCCCCCCCC(=O)N[C@H]1CCCNC(=O)C1,87 to 88
23,O=C(O)c1cn([C@@H]2C[C@@H]2F)c2c(Cl)c(Cl)ccc2c1=O,198 to 201
24,CNC(=O)c1ccccc1-c1nc(-c2ccccc2)no1,145 to 146
25,O=C(O)c1cc(S(=O)(=O)N2CCCC(OCc3ccccc3)C2)ccc1Br (configuration not stated),177 to 178

row,Structure (SMILES),melting point [°C]
1,O=C(c1ccccc1)C(Cc1ccccc1)C(=O)c1ccccc1,102 to 103
2,O=[N+]([O-])c1cc(Cl)cc(C(c2cc(Cl)cc([N+](=O)[O-])c2O)C(F)(F)F)c1O,135
3,Cc1ccccc1C=CCN1CCc2nc(N)sc2CC1,112 to 115
4,O=C(/C=C/c1ccc2c(/C=C/C(=O)N3CCCC3)c[nH]c2c1)N1CCCC1,268 to 270
5,COc1nc(C(F)(F)F)cc(=O)n1-c1cc(OCCON=C(C)C)c(Br)cc1F,149 to 150
6,Cc1cccc(-c2[nH]c(C(C)C)nc2-c2cccc(-n3ccnc3)c2)n1,158 to 161
7,CNC(=O)c1ccc(N2CCN(Cc3cc(C)c4c(c3)NC(=O)C(C)O4)CC2)c(C)c1 (configuration not stated),113 to 120
8,O=C(CSc1nc2ccccc2s1)c1ccc2[nH]c3ncc(Cl)cc3c2c1,241 to 242
9,CNC(=O)Cc1ccc2c(c1)Cc1c-2[nH]c(=O)c2nccn12,> 260
10,O=C(O)[C@@H]1CN[C@H](C(=O)O)C1,219 to 220
11,C(=C1CC(c2ccccc2)Cc2ccccc21)c1cncn1Cc1ccccc1 (configuration not stated),198
12,C[Si](C)(C)C#Cc1cnn(-c2ccnc3cc(Cl)ccc23)c1,106 to 112
13,O=C(O)[C@H](Cc1cccc(OCC(F)(F)C(F)F)c1)[C@@H](O)c1ccc(F)cc1 (racemic),114 to 115
14,COc1ccccc1NC(=O)c1ccc(CN2CCOCC2)cc1,90 to 93.5
15,COC(=O)C1=C(C)NC2(O)COC(=O)C2C1c1cccc([N+](=O)[O-])c1 (configuration not stated),147 to 149
16,COC(=O)NC1=NCC(c2ccccc2F)N1C (configuration not stated),153 to 155
17,O=C(NCc1ccc(Cl)cc1)c1cnc2sc(CN3CCOCC3)cc2c1O,193 to 195
18,CN1C(=O)CC[C@]2(C)c3ccc(-c4ccc5c(c4)CCC5=O)cc3CC[C@@H]12,175 to 178
19,CC(C)N=C(N=c1ccccn1CCc1ccccc1Br)NC(C)C,125 to 128
20,CNS(=O)(=O)c1cc(OC)c(OC)c(C(=O)NCC2CCCN2CC2CC2)c1 (configuration not stated),110 to 112
21,O=C1CSc2cc(C(O)(C(F)(F)F)C(F)(F)F)ccc2N1,230 to 232
22,O=C(c1ccccn1)c1cnn2c(-c3cccc(NC(=O)C4CC4)c3)ccnc12,214 to 215
23,CC(C)OCC1(C(C)(F)F)c2cc(C#N)ccc2Nc2ncc(Cl)cc21 (configuration not stated),79 to 81
24,O=C(OCCCCc1ccc2[nH]c(=O)oc2c1)C(F)(F)F,100 to 103
25,Cc1cc(C)nc(NC(=O)NS(=O)(=O)C2CCCCCCCCCCC2Cl)n1 (configuration not stated),84

row,Structure (SMILES),melting point [°C]
1,CCn1c(CCO)nc(C2CC2)c1Sc1cc(C#N)cc(C#N)c1,122 to 124
2,COCC(C)N1Cc2c(NC(=O)c3ccc(F)c(C(F)(F)F)c3)cccc2C1=O (configuration not stated),151 to 152
3,COc1ccc(C2(C#N)CCC(=C3SCCCS3)CC2)cc1OC1CCCC1 (configuration not stated),115 to 116
4,COc1cc(Nc2c(C#N)cnc3cc(OCCCN4CCN(C)CC4)c(OC)cc23)c(Cl)cc1Cl,116 to 120
5,Cc1ccc2c(N3CCc4ccc(Cl)cc43)ncnc2c1,265
6,c1ccc2c(Nc3ccc4c(c3)CCC4)ncc(Sc3ccncc3)c2c1,100 to 103
7,O=C1Nc2cccnc2Nc2ccccc21,278 to 280
8,CCN(CC)CCNC(=O)N1CCC(S(=O)c2ccc(Cl)cc2)C1 (configuration not stated),128 to 130
9,CCCCN(Cc1ccc(-c2ccccc2-c2nnnn2C(c2ccccc2)(c2ccccc2)c2ccccc2)cc1)c1nc(SC)ncc1C(=O)OCC,122 to 124
10,COc1cc2c(Nc3ccc(Sc4nccn4C)c(Cl)c3)c(C#N)cnc2cc1OCCN1CCC(N2CCCC2)CC1,127 to 130
11,COc1ccc(C(=O)Nc2ccc(C(C)(C)CNC(=O)c3cnc4[nH]ccc4c3)cc2)cc1OC,256 to 258
12,COC(=O)CCSc1c(C(N)=O)sc2ccc(OC)cc12,142 to 144
13,CC1(C)Nc2ccccc2-c2c(N)cnn21,181 to 183
14,CC(=O)N(C)Cc1ccc(CCn2cnc3cc(-c4ccc(Cl)cc4)sc3c2=O)cc1,176 to 178
15,CCOc1cccc(S(=O)(=O)c2ccc(C)nc2Nc2c(C)cc(C)cc2C)c1,96 to 97
16,CC(=O)Nc1ccc2nc3n(c2c1)CCC3,250 to 255
17,Cc1cc2c(-c3ccccc3)c(CC#N)n(C)c(=O)c2cc1C,186 to 188
18,N=C(NC(=O)OCc1ccccc1)NC(=O)OCc1ccccc1,149 to 150
19,COc1ccc2c(Cc3c(Cl)cncc3Cl)nn(CC(=O)NO)c(=O)c2c1,256 to 258
20,CCCCc1ccc(N2C(=O)CN(Cc3ccccc3)C2=S)cc1,149 to 151
21,CCCCSc1cc(C(=O)O)cc(N)c1-c1ccccc1,143 to 144
22,CN1CCC(c2c(O)cc(O)c3c(=O)cc(Oc4ccccc4Cl)oc23)C(O)C1 (configuration not stated),105
